This is an account of results in patent US8362000B2, “Azetidinyl diamides as monoacylglycerol lipase inhibitors” (Janssen Pharmaceutica NV, priority 2009, dated 2013).

Positions count from the first letter of the chain named. Like-named read-outs stand apart in the source and are kept apart here. Bounds are passed on as bounds.

For test [1], the target named is T1, purified wild type MGL (wt-MGLL 6H-11-313) (Homo sapiens, UniProt Q99685).
T1 sequence (Q99685 1-303): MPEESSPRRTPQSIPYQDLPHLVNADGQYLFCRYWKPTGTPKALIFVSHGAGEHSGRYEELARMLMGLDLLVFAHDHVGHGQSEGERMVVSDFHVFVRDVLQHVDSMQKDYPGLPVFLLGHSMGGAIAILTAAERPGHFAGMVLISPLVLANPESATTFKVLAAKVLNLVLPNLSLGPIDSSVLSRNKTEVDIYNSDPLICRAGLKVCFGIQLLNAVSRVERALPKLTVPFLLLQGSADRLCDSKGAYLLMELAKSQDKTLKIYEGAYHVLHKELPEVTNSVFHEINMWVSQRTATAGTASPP

The target in a further test is T2, mutant MGL (Homo sapiens, UniProt Q99685, L169S/L176S).
T2 sequence (Q99685 1-303 L169S/L176S): T1 sequence (Q99685 1-303) with L169S, L176S
The experiment in a line: MGL ThermoFluor assay - mutant. It is filed as binding. For orientation: Differential scanning fluorimetry follows unfolding on heating by fluorescence.

The mark [2] stands for this setting: ThermoFluor concentration-response, read-out: MGL mutant ThermoFluor Kd.
The mark [3] stands for this setting: compound concentration measured by qNMR, read-out: MGL mutant ThermoFluor qKd (using qNMR conc.).
The mark [4] stands for this setting: ThermoFluor thermal stability binding assay, read-out: MGL mutant ThermoFluor Kd.
The mark [5] stands for this setting: ThermoFluor, compound concentration measured by qNMR, read-out: MGL mutant ThermoFluor qKd (using qNMR conc.).
Where [6] appears, read: ThermoFluor, compound concentration measured by qNMR, read-out: MGL mutant ThermoFluor qKd (μM) (using qNMR conc.).

`COc1cccc2c(C)c(C(=O)N3CC(N4CCN(C(=O)c5nccs5)CC4)C3)[nH]c12` [Cpd 760]: in test [1], the IC50 (commonly the concentration at which inhibition is half-maximal) was determined as 581 nM. Besides, the Kd on mutant MGL (setting [2]) was 0.199 µM.
Compound `O=C(c1ccc2nn(CCc3ccc(F)cc3)cc2c1)N1CC(N2CCN(C(=O)c3nccs3)CC2)C1` [Cpd 1050, 2-[2-(4-Fluorophenyl)ethyl]-5-({3-[4-(1,3-thiazol-2-ylcarbonyl)piperazin-1-yl]azetidin-1-yl}carbonyl)-2H-indazole] had an IC50 in test [1] of 24 nM. Besides, on mutant MGL (setting [3]), the Kd is 0.085 µM.
In test [1], `Cc1nc2cc(C(=O)N3CC(N4CCN(C(=O)c5nccs5)CC4)C3)ccc2n1CC(F)(F)F` [Cpd 789] had an IC50 of 1370 nM. For the same compound, the Kd on mutant MGL (setting [3]) amounted to 0.043 µM.
With `O=C(c1ccc2c(c1)CCN(C(=O)C1CCC(F)(F)CC1)C2)N1CC(N2CCN(C(=O)c3nccs3)CC2)C1` [Cpd 729], the IC50 in test [1] was 236 nM. The Kd at mutant MGL (setting [4]) was found to be 0.185 µM.
In test [1], `Cc1nn(-c2ccc(F)cc2)c2ncc(C(=O)N3CC(N4CCN(C(=O)c5nccs5)CC4)C3)cc12` [Cpd 1203] displayed an IC50 of 153 nM. Further, the Kd at mutant MGL (setting [5]) amounted to 0.015 µM.
In test [1], `O=C(c1ccc(-c2cccc(C(F)(F)F)c2)cc1)N1CC(N2CCN(C(=O)c3ncco3)CC2)C1` [Cpd 1085] yielded an IC50 of 9 nM. The Kd at mutant MGL (setting [6]) is 0.008 µM.
With `O=C(c1ccc(-c2ccccc2)cc1)N1CC(N2CCN(C(=O)c3cocn3)CC2)C1` [Cpd 1222], in test [1], the IC50 is 266 nM. Further, the Kd on mutant MGL (setting [4]) amounted to 0.068 µM.
With `Cc1nc2cc(C(=O)N3CC(N4CCN(C(=O)c5nccs5)CC4)C3)ccc2n1C1CCCCC1` [Cpd 732], half-maximal inhibition in test [1] (IC50) required 239 nM. For the same compound, the Kd at mutant MGL (setting [2]) worked out at 0.002 µM.
Turning to `Cc1nc2cc(Cl)ccc2cc1C(=O)N1CC(N2CCN(C(=O)c3nccs3)CC2)C1` [Cpd 826], the IC50 in test [1] amounted to 3290 nM. Further, the Kd at mutant MGL (setting [5]) was 0.663 µM.
As to `N#Cc1cc(-n2ccc3cc(C(=O)N4CC(N5CCN(C(=O)c6nccs6)CC5)C4)ccc32)ccc1F` [Cpd 1417, 2-Fluoro-5-[5-({3-[4-(1,3-thiazol-2-ylcarbonyl)piperazin-1-yl]azetidin-1-yl}carbonyl)-1H-indol-1-yl]benzonitrile], the IC50 in test [1] was less than 5 nM. In addition, the Kd at mutant MGL (setting [2]) amounted to 0.025 µM.
For `O=C(c1ccccc1)N1CC(N2CCN(C(=O)c3cc4cc(C(F)(F)F)ccc4s3)C(c3ccccc3)C2)C1` (stereo not drawn) [Cpd 517] the same measures were 1340 nM and 0.05 µM.
For `O=C(c1ccc(-c2ccc(C(F)(F)F)cc2)cc1)N1CC(N2CCN(C(=O)c3nccs3)CC2)C1` [Cpd 150, 1-(1,3-Thiazol-2-ylcarbonyl)-4-(1-{[4′-(trifluoromethyl)biphenyl-4-yl]carbonyl}azetidin-3-yl)piperazine] the same measures were less than 5 nM and 0.0033 µM.
For `Cc1ccc2sc(C(=O)N3CC(N4CCN(C(=O)c5cscn5)CC4)C3)c(C(F)(F)F)c2c1` [Cpd 737, 1-(1-{[5-Methyl-3-(trifluoromethyl)-1-benzothiophen-2-yl]carbonyl}azetidin-3-yl)-4-(1,3-thiazol-4-ylcarbonyl)piperazine] the same measures were 285 nM and 0.031 µM.
In test [1], `O=C(c1ccc2c(c1)ncn2C1CCC(F)(F)CC1)N1CC(N2CCN(C(=O)c3cscn3)CC2)C1` [Cpd 834] gave an IC50 of 4600 nM. Moreover, the Kd at mutant MGL (setting [3]) was found to be 0.234 µM.
Turning to `COc1cc(-n2ccc3cc(C(=O)N4CC(N5CCN(C(=O)c6nccs6)CC5)C4)ccc32)ccc1C#N` [Cpd 1115], half-maximal inhibition in test [1] (IC50) required 16 nM. Further, at mutant MGL (setting [6]), the Kd was 0.005 µM.
`O=C(c1cccc(F)c1)N1CCN(C2CN(C(=O)c3ccc4c(ccn4-c4ccc(F)cc4)c3)C2)CC1` [Cpd 1424]: the IC50 in test [1] stood at 75 nM. The Kd on mutant MGL (setting [6]) was 0.124 µM.
In test [1], `O=C(c1cscn1)N1CCN(C2CN(C(=O)c3cc(-c4ccccc4)ccc3F)C2)CC1` [Cpd 1280] had an IC50 of 1980 nM. On mutant MGL (setting [2]), the Kd is 6.42 µM.
In test [1], `O=C(c1ccc(Oc2cccnc2)cc1)N1CC(N2CCN(C(=O)c3nccs3)CC2)C1` [Cpd 734] yielded an IC50 of 256 nM. Also, the Kd on mutant MGL (setting [2]) is 1.26 µM.
